According to patent US8093251B2, “Nitrogen-containing heterocyclic compounds and thrombopoietin receptor activators” (Nissan Chemical Industries, Ltd., priority 2006, dated 2012):

Biological target: T1, human thrombopoietin receptor (c-mpl) (Homo sapiens, UniProt P40238)
T1 construct: expressed in transfected cells
T1 sequence (P40238 26-635): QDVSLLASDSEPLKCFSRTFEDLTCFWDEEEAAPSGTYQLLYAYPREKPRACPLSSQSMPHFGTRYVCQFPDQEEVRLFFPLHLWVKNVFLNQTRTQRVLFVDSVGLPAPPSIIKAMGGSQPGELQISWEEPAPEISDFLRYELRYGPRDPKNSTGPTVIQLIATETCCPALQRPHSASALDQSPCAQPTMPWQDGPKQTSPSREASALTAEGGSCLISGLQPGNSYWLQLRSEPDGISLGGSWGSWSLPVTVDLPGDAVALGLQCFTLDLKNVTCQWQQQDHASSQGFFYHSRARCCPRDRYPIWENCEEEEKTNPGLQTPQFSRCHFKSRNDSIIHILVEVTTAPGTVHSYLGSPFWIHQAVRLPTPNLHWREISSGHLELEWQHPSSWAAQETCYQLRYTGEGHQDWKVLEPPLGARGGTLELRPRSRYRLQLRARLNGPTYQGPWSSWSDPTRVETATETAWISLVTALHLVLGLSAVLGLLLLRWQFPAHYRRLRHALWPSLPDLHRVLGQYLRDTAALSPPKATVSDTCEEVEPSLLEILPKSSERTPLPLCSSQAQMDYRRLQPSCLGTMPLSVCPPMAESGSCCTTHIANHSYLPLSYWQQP
Test: Stimulation of proliferation of thrombopoietin-dependent cell line UT7/EPO-mpl (WST-8)
Format: cell-based
Settings: human leukemic cell line UT-7/EPO-mpl, 4 days incubation, WST-8, absorbance at 450 nm; read-out: EC50 (concentration that yields a growth rate corresponding to 50% of the growth observed in the presence of 10 ng/mL TPO) (converted)
Protocol: The responses of thrombopoietin receptor to the compounds of the present invention prepared in the Synthetic Examples were assayed using a human leukemic cell line, UT7/EPO-mpl.
UT7/EPO-mpl is a stable transformed cell line obtained by introducing into human leukemic cell line UT7/EPO a vector that induces expression of human thrombopoietin receptor (c-mpl) under control of cytomegalovirus immediate-early promoter by the method of Takatoku et al. (J. Biol. Chem., 272:7259-7263 (1997)). […] These two cell lines were subcultured in IMDM (GIBCO) containing 10% fetal bovine serum (Thermo Electron or BioWest) using a CO2 incubator (5% CO2, 37° C.).
The subcultured cells described above were washed twice with PBS and suspended in IMDM containing 10% fetal bovine serum at a cell density of 6×10^4 cells/ml. The cell suspension was transferred to a 96-well tissue culture plate (CORNING) in 100-μl aliquots. Then either thrombopoietin (Pepro Tech EC) or the compounds of the Synthetic Examples dissolved in dimethyl sulfoxide were diluted 83-fold with IMDM containing 10% fetal bovine serum and added to the aforementioned cell suspension in 20-μl aliquots. The cell suspension was incubated in a CO2 incubator (5% CO2, 37° C.) for 4 days. […] The formazan pigment generated was detected by measuring the absorbance at 450 nm with a 96-well microplate reader (Nihon Molecular Devices, Spectramax 190). […]

For `CCOC(=O)CN1CCN(C(=S)NNC(C)=C2C(=O)N(c3ccc(C(C)(C)C)cc3)N=C2C)CC1` [Example 7], which EC50 is on record?
The EC50 was 71.9 nM.
